Results reported in patent publication US5008416A, “Organogermanium compound, process for the preparation of same as well as use thereof” (Sanwa Kagaku Kenkyusho Co., Ltd., priority 1989, dated 1991).
Like-named read-outs stand apart in the source and are kept apart here.

How the values were obtained:
[1] = tested on: acute liver injury induced by galactosamine (serum transaminases); assay: Action to acute liver injury induced by galactosamine (Pharmacological Experiment 10); type: in vivo, rat (Wister male); conditions: for s-GPT / s-GOT: 5 days, 48 hours, mean ± standard error, n = 10
Experimental: An action of the organogermanium compound of the invention to an acute liver injury to be induced by galactosamine, as an experimental model for liver injury is checked, through measurement of serum transaminases, as indexes.
To Wister male rats (n=10 for each group), galactosamine was administered into abdominal canal by a dose of 400 mg/kg at 2 times with an interval of 6 hours to induce a acute liver injury.
To the […] in each Test group, the compound according to the invention (Example 4) dissolved in 4% bovine serum albumin solution was orally administered by 0.1, 1.0 or 10.0 mg/kg/day over 5 days beginning from 3 days before the administration of galactosamine.
After having lapsed 48 hours from the first administration of galactosamine, a blood letting was carried out to measure GOT and GPT values in serum.

tumor bearing mice [2] = assay: Influence on delayed type hypersensitivity in tumor bearing mice (Pharmacological Experiment 3); type: in vivo, mouse (ICR male); conditions: for Foot pad swelling: 24 hours, mean ± standard error, n = 10
Experimental: To investigate the effect of the organogermanium compound on the cellular immunity, we employed the delayed type hypersensitivity (DTH) of mice. Tumor bearing mice were used as experimental animals with reduced immunity and effect of the compound on the reduced DTH reaction was assayed.
Sarcoma 180 cells (10^6 cells) were intraperitoneally implanted to ICR male mice (age of 8 weeks) and after 3 hours from the implantation, 10^6 cells of SRBC were injected by intravenous route. Four days later, 2×10^8 cells of SRBC were intracutaneus injection to hind foot pad. After 24 hours from the injection, the swelling of the foot pad was observed by stereoscopic microscope.
To the mice in each test group, the organogermanium compound (Example 4) dissolved in 4% bovine serum albumin was orally administered at the time 4 days before the immunization at the dose of 0.1, 1.0 and 10.0 mg/kg.

tumor bearing mice [3] = assay: Influence on antibody production in tumor bearing mice (Pharmacological Experiment 1); type: in vivo, mouse (ICR male); conditions: for Number of PFC: 5 days, mean ± standard error, n = 7
Experimental: Influence of the organogermanium compound on antibody production ability is checked with use of tumor bearing mice, as experimental animals reduced in their immunity response.
Tumor bearing mice were prepared by implanting 2×10^6 cells of mouse tumor cell (Sarcoma 180) under a skin of each ICR male mouse (age of 6 weeks) to form a solid tumor.
The organogermanium compound (Production Example 4) dissolved in 4% bovine serum albumin solution was orally administered to the tumor bearing mice over 5 days after lapsed 9 days from the implantation of the tumor cells, by a dose of 0.1, 1.0 or 10.0 mg/kg/day.
After lapsed 14 days from the implantation, 2×10^8 cells of sheep red blood cells (SRBC) were injected in a tail vein of the mice for sensitization. After 4 days from the sensitization, spleen was removed and number of PFC in 10^6 spleen cells was measured, as an index of the antibody production in the tumor bearing mice.

[4] = tested on: Influenza virus (A/PR/S strain); assay: Anti-virus effect, influenza virus infection model of mouse (Pharmacological Experiment 9); type: in vivo, mouse (BALB/c male); conditions: for Ratio of survival / Average life: 6 days; for Ratio of survival: 20 days from infection
Experimental: An antiviral effect of the compound according to the invention is investigated with an experimental influenza virus infection model of mouse.
Influenza virus (A/PR/S strain) was inoculated into a trachea of BALB/c male mice at 9.0 PFU/mouse. The organogermanium compound (Example 4) dissolved in 4% bovine serum albumin solution was orally administered at the dose of 0.1, 1.0 and 10.0 mg/kg once a day for 6 days from the day just after the infection to the 5th day therefrom.
A mortality of the mice was observed over 20 days from the virus infection.

[5] = tested on: Vaccinia virus (DI strain); type: in vivo, mouse (ddy male); conditions: for Inhibition (pocks) / Number of pocks: 7th day; for Number of pocks: mean ± standard error, n = 10, (***) p < 0.001 vs Control
NZB/WF1 mice = assay: Influence on antibody production in NZB/WF1 mice (Pharmacological Experiment 2); type: in vivo, mouse (NZB/WF1 female); conditions: for Number of PFC: 3 times, mean ± standard error, n = 5, (*) significant vs Control
Experimental: Influence of the organogermanium compound on antibody production is checked with use of NZB/WF1 mice who generate an autoimmune disease due to polyclonal activation of B cells, caused by functional reduction of suppresser T cell activities.
NZB/WF1 female mice (age of 11 weeks) were classified into Control group and Test groups (5 mice for each group), and 2×10^8 cells of SRBC were injected in a tail vein of each mouse for sensitization.
To the mice in each Test group, the organogermanium compound (Example 4) dissolved in 4% bovine serum albumin solution was orally administered in a dose of 1.0 or 10.0 mg/kg/day at 3 time, namely the day before, just after and the day after the sensitization.
After 4 days from the sensitization, spleen was removed from each mouse and number of PFC in 10^6 spleen cells was measured, as an index of the antibody production in the NZB/WF1 mice.

[6] = tested on: interferon (IFN) production; type: in vivo, mouse (BALB/c male); conditions: for INF titer: lung supernatant, three days, mean ± standard error, n = 5
[7] = 0.1 mg/kg (as printed in Table 8) orally

Substance: Sodium 2-oxygermylethanesulfonate polymer [Example 4]
- s-GPT ([1]; 0.1 mg/kg/day orally): 382 ± 151 Karmen Unit
- s-GOT ([1]; 0.1 mg/kg/day orally, (*) p < 0.05 vs Control): 1034 ± 184
- s-GPT ([1]; 1.0 mg/kg/day orally, (*) p < 0.05 vs Control): 238 ± 87 Karmen Unit
- s-GOT ([1]; 1.0 mg/kg/day orally, (***) p < 0.001 vs Control): 563 ± 133
- s-GPT ([1]; 10.0 mg/kg/day orally, (*) p < 0.05 vs Control): 275 Karmen Unit
- s-GOT ([1]; 10.0 mg/kg/day orally, (**) p < 0.01 vs Control): 620 ± 201
- GOT and GPT values (result in words) ([1]; 0.1, 1.0 or 10.0 mg/kg/day orally): noticeably decreasing GOT and GPT values
- Foot pad swelling (tumor bearing mice [2]; 0.1 mg/kg orally): 66.8 ± 7.5 ×0.01 mm
- Foot pad swelling (tumor bearing mice [2]; 1.0 mg/kg orally, (***) p < 0.001 vs tumor bearing): 85.0 ± 5.9 ×0.01 mm
- Foot pad swelling (tumor bearing mice [2]; 10.0 mg/kg orally, (***) p < 0.001 vs tumor bearing): 74.3 ± 4.9 ×0.01 mm
- DTH response of tumor bearing mice (result in words) (tumor bearing mice [2]; 0.1, 1.0 and 10.0 mg/kg orally): significantly restored the reduced DTH response to normal level
- Number of PFC (tumor bearing mice [3]; 0.1 mg/kg/day orally, (*) p < 0.05 vs tumor bearing): 745 ± 66 PFC in 10^6 spleen cells
- Number of PFC (tumor bearing mice [3]; 1.0 mg/kg/day orally): 948 ± 195 PFC in 10^6 spleen cells
- Number of PFC (tumor bearing mice [3]; 10.0 mg/kg/day orally, (***) p < 0.001 vs tumor bearing): 1071 ± 89 PFC in 10^6 spleen cells
- Antibody production (result in words) (tumor bearing mice [3]; 0.1-10.0 mg/kg/day orally, depending on dosing amount): the reduced antibody production due to generation of the tumor increased to a normal level
- Ratio of survival ([4]; 0.1 mg/kg orally once a day): 0/10
- Average life ([4]; 0.1 mg/kg orally once a day, (*) p < 0.05 vs Control): 10.0 days
- Ratio of survival ([4]; 1.0 mg/kg orally once a day): 4/10
- Average life ([4]; 1.0 mg/kg orally once a day, (***) p < 0.001 vs Control): 15.2 days
- Mice alive at end of test period ([4]; 1.0 mg/kg orally, 20 days from the infection): 4 mice
- Ratio of survival ([4]; 10.0 mg/kg orally once a day): 3/10
- Average life ([4]; 10.0 mg/kg orally once a day, (**) p < 0.01 vs Control): 13.7 days
- Average life vs Control group (result in words) ([4]; each of Testing groups, 0.1, 1.0 and 10.0 mg/kg orally): a significant difference has been recognized
- Inhibition (pocks) [5, 7]: 41.0%
- Number of pocks [5, 7]: 23 ± 2
- Inhibition (pocks) ([5]; 10.0 mg/kg orally): 43.5%
- Number of pocks ([5]; 10.0 mg/kg orally): 22 ± 4
- Host defense against Vaccinia virus (result in words) ([5]; orally): has host defense function against Vaccinia virus infected mice
- Number of PFC (NZB/WF1 mice; 1.0 mg/kg/day orally): 3511 ± 302 PFC in 10^6 spleen cells
- Number of PFC (NZB/WF1 mice; 10.0 mg/kg/day orally): 3800 ± 360 PFC in 10^6 spleen cells
- Number of PFC (result in words) (NZB/WF1 mice; treatment groups, 1.0 or 10.0 mg/kg/day orally): the number of PFC was significantly reduced
- INF titer ([6]; 0.1 mg/kg orally): 49.3 ± 5.3 IU/mg protein
- IFN activity, times higher than the control group ([6]; 1.0 mg/kg orally): about 2.5 times
- INF titer ([6]; 1.0 mg/kg orally, (**) p < 0.01 vs control): 138.3 ± 17.1 IU/mg protein
- IFN activity, times higher than the control group ([6]; 10.0 mg/kg orally): ~2.8 times
- INF titer ([6]; 10.0 mg/kg orally, (**) p < 0.01 vs control): 156.7 ± 28.3 IU/mg protein
